30 compounds from patent publication US7550456B2, “Substituted aryl cycloalkanoyl derivatives and methods of their use” (Wyeth, priority 2003, dated 2009) can be followed below.

pEC50: −log10 of the molar value. Structures can show the parent of a compound that is named as a salt.

One may read the inhibition as the drop in the measured response relative to a control, in per cent. Usually pEC50 stands for −log10 of the EC50, conventionally taken in molar units. A high value points to a small EC50.

T1 sequence (P23975 whole entry): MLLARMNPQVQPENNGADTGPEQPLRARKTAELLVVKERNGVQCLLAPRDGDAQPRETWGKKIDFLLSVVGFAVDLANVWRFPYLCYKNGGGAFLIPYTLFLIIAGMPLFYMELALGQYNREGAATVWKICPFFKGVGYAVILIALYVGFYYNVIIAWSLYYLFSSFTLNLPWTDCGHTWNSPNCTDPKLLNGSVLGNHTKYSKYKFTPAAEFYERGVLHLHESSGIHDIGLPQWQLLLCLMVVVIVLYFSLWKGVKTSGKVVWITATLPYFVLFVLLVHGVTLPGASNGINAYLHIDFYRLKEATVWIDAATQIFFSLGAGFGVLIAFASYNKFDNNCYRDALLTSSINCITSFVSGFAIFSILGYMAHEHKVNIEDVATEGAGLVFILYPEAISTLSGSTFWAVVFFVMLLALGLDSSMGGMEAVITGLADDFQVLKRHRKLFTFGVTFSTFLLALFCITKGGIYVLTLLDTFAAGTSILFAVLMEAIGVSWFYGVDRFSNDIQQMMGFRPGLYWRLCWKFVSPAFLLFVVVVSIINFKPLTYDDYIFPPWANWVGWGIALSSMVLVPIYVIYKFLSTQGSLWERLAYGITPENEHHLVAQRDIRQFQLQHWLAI

One assay addresses T1, human hNET (Homo sapiens, UniProt P23975).
T1 construct: expressed in transfected cells; host or cells: MDCK-Net6 (MDCK cells, stably transfected)
Nature of the assay: Norepinephrine (NE) uptake assay in MDCK-Net6 cells. In kind it is cell-based. Conditions: 1 μM test compound, [3H]NE uptake, dihydrochloride, 1 µM. As for the experimental part:
Cells were plated at 300,000/T75 flask and cells were split twice weekly. […] Cells were plated at 250,000 cells/T75 flask and split twice weekly.
Norepinephrine (NE) Uptake Assay
On day 1, cells were plated at 3,000 cells/well in growth medium and maintained in a cell incubator (37° C., 5% CO2). On day 2, growth medium was replaced with 200 μl of assay buffer (25 mM HEPES; 120 mM NaCl; 5 mM KCl; 2.5 mM CaCl2; 1.2 mM MgSO4; 2 mg/ml glucose (pH 7.4, 37° C.)) containing 0.2 mg/ml ascorbic acid and 10 μM pargyline. Plates containing cells with 200 μl of assay buffer were equilibrated for 10 minutes at 37° C. prior to addition of compounds. A stock solution of desipramine was prepared in DMSO (10 mM) and delivered to triplicate wells containing cells for a final test concentration of 1 μM. Data from these wells were used to define non-specific NE uptake (minimum NE uptake). Test compounds were prepared in DMSO (10 mM) and diluted in assay buffer according to test range (1 to 10,000 nM). Twenty-five microliters of assay buffer (maximum NE uptake) or test compound were added directly to triplicate wells containing cells in 200 μl of assay buffer. The cells in assay buffer with test compounds were incubated for 20 minutes at 37° C. […] The reaction was terminated by decanting the supernatant from the plate. The plates containing cells were washed twice with 200 μl assay buffer (37° C.) to remove free radioligand. The plates were then inverted, left to dry for 2 minutes, then reinverted and air-dried for an additional 10 minutes. The cells were lysed in 25 μl of 0.25 N NaOH solution (4° C.), placed on a shake table and vigorously shaken for 5 minutes. After cell lysis, 75 μl of scintillation cocktail was added to each well and the plates were sealed with film tape. The plates were returned to the shake table and vigorously shaken for a minimum of 10 minutes to ensure adequate partitioning of organic and aqueous solutions. The plates were counted in a Wallac Microbeta counter (PerkinElmer) to collect the raw cpm data.
For each experiment, a data stream of cpm values collected from the Wallac Microbeta counter was downloaded to a Microsoft Excel statistical application program. Calculations of EC50 values were made using the transformed-both-sides logistic dose response program written by Wyeth Biometrics Department.
Turning to `OC1([C@H](CN2CCNCC2)c2cccc(OC(F)(F)F)c2)CCCCC1` [Example 243, 1-{(1S)-2-piperazin-1-yl-1-[3-(trifluoromethoxy)phenyl]ethyl}cyclohexanol dihydrochloride], the “% Inhibition @ 1 μM (hNET)” value is recorded as 91%.

The assay is the same for the next values; noted with them: 1 μM test compound, [3H]NE uptake, read-out: % Inhibition @ 1 μM (hNET).
In the case of `CN1CCN(CC(c2ccc(-c3ccccc3)cc2)C2(O)CCCCC2)CC1` (stereo not shown) [Example 158, 1-[1-(1,1′-biphenyl-4-yl)-2-(4-methylpiperazin-1-ylethyl]cyclohexanoldihydrochloride], the inhibition at 1 µM turned out to be 57%.
For the compound `N#Cc1cccc(C(CN2CCNCC2)C2(O)CCCCC2)c1` (stereo not shown) [Example 160, 1-[1-(3-cyanophenyl)-2-piperazin-1-ylethyl]cyclohexanol dihydrochloride], the inhibition at 1 µM turned out to be 50%.
The same measure, in the same setting: the value for `CN1CCN(CC(c2cccc(C#N)c2)C2(O)CCCCC2)CC1` (stereo not shown) [Example 161, 1-[1-(3-cyanophenyl)-2-(4-methylpiperazin-1-yl)ethyl]cyclohexanol dihydrochloride] was 70%.
As for `C=Cc1cccc(C(CN2CCNCC2)C2(O)CCCCC2)c1` (stereo not shown) [Example 162, 1-[2-piperazin-1-yl-1-(3-vinylphenyl)ethyl]cyclohexanol dihydrochloride], the inhibition at 1 µM was 78%.
Turning to `C=Cc1ccc(C(CN2CCNCC2)C2(O)CCCCC2)cc1` (stereo not shown) [Example 163, 1-[2-piperazin-1-yl-1-(4-vinylphenyl)ethyl]cyclohexanol dihydrochloride], the inhibition at 1 µM stood at 17%.
As for `CC#Cc1ccc(C(CN2CCNCC2)C2(O)CCCCC2)cc1` (stereo not shown) [Example 164, 1-[2-piperazin-1-yl-1-(4-prop-1-ynylphenyl)ethyl]cyclohexanol dihydrochloride], the inhibition at 1 µM is 56%.
With `OC1(C(CN2CCNCC2)c2ccc(-c3ccccc3Cl)cc2)CCCCC1` (stereo not shown) [Example 165, 1-[1-(2′-chloro-1,1′-biphenyl-4-yl)-2-piperazin-1-ylethyl]cyclohexanol dihydrochloride], the inhibition at 1 µM was determined as 13%.
With `OC1(C(CN2CCNCC2)c2ccc(-c3cccc(F)c3)cc2)CCCCC1` (stereo not shown) [Example 166, 1-[1-(3′-fluoro-1,1′-biphenyl-4-yl)-2-piperazin-1-ylethyl]cyclohexanol dihydrochloride], the inhibition at 1 µM amounted to 48%.
Same read-out and setting: the value for `OC1(C(CN2CCNCC2)c2ccc(-c3cccc(Cl)c3)cc2)CCCCC1` (stereo not shown) [Example 167, 1-[1-(3′-chloro-1,1′-biphenyl-4-yl)-2-piperazin-1-ylethyl]cyclohexanol dihydrochloride] was 25%; that for `N#Cc1cccc(-c2ccc(C(CN3CCNCC3)C3(O)CCCCC3)cc2)c1` (stereo not shown) [Example 168, 1-[1-(3′-cyano-1,1′-biphenyl-4-yl)-2-piperazin-1-ylethyl]cyclohexanol dihydrochloride] was 66%; that for `O=[N+]([O-])c1cccc(-c2ccc(C(CN3CCNCC3)C3(O)CCCCC3)cc2)c1` (stereo not shown) [Example 169, 1-[1-(3′-nitro-1,1′-biphenyl-4-yl)-2-piperazin-1-ylethyl]cyclohexanol dihydrochloride] was 69%.
On the same count and under the same terms, under `COc1cccc(-c2ccc(C(CN3CCNCC3)C3(O)CCCCC3)cc2)c1` (stereo not shown) [Example 170, 1-[1-(3′-methoxy-1,1′-biphenyl-4-yl)-2-piperazin-1-ylethyl]cyclohexanol dihydrochloride] stands 19%; under `OC1(C(CN2CCNCC2)c2ccc(-c3cccc(OC(F)(F)F)c3)cc2)CCCCC1` (stereo not shown) [Example 171, 1-{2-piperazin-1-yl-1-[3′-(trifluoromethoxy)-1,1′-biphenyl-4-yl]ethyl}cyclohexanol dihydrochloride], 32%; under `OC1(C(CN2CCNCC2)c2ccc(-c3ccc(Cl)cc3)cc2)CCCCC1` (stereo not shown) [Example 172, 1-[1-(4′-chloro-1,1′-biphenyl-4-yl)-2-piperazin-1-ylethyl]cyclohexanol dihydrochloride], 55%.
Still for that read-out and setting: the value for `OC1(C(CN2CCNCC2)c2ccc(-c3ccc(Cl)c(Cl)c3)cc2)CCCCC1` (stereo not shown) [Example 173, 1-[1-(3′,4′-dichloro-1,1′-biphenyl-4-yl)-2-piperazin-1-ylethyl]cyclohexanol dihydrochloride] was 35%; that for `OC1(C(CN2CCNCC2)c2ccc(-c3ccsc3)cc2)CCCCC1` (stereo not shown) [Example 174, 1-[2-piperazin-1-yl-1-(4-thien-3-ylphenyl)ethyl]cyclohexanol dihydrochloride] was 2%.
As to `CN1CCN(CC(c2ccc(-c3ccccc3Cl)cc2)C2(O)CCCCC2)CC1` (stereo not shown) [Example 175, 1-[1-(2′-chloro-1,1′-biphenyl-4-yl)-2-(4-methylpiperazin-1-yl)ethyl]cyclohexanol dihydrochloride], the inhibition at 1 µM is 20%.
Take `CN1CCN(CC(c2ccc(-c3cccc(Cl)c3)cc2)C2(O)CCCCC2)CC1` (stereo not shown) [Example 176, 1-[1-(3′-chloro-1,1′-biphenyl-4-yl)-2-(4-methylpiperazin-1-yl)ethyl]cyclohexanol dihydrochloride]: the inhibition at 1 µM was 28%.
Still for that read-out and setting: under `CN1CCN(CC(c2ccc(-c3cccc(C#N)c3)cc2)C2(O)CCCCC2)CC1` (stereo not shown) [Example 177, 1-[1-(3′-cyano-1,1′-biphenyl-4-yl)-2-(4-methylpiperazin-1-yl)ethyl]cyclohexanol dihydrochloride] stands 54%.
`CN1CCN(CC(c2ccc(-c3cccc([N+](=O)[O-])c3)cc2)C2(O)CCCCC2)CC1` (stereo not shown) [Example 178, 1-[2-(4-methylpiperazin-1-yl)-1-(3′-nitro-1,1′-biphenyl-4-yl)ethyl]cyclohexanol dihydrochloride]: the inhibition at 1 µM worked out at 33%.
As for `COc1cccc(-c2ccc(C(CN3CCN(C)CC3)C3(O)CCCCC3)cc2)c1` (stereo not shown) [Example 179, 1-[1-(3′-methoxy-1,1′-biphenyl-4-yl)-2-(4-methylpiperazin-1-yl)ethyl]cyclohexanol dihydrochloride], the inhibition at 1 µM worked out at 27%.
In the case of `CN1CCN(CC(c2ccc(-c3ccc(F)cc3)cc2)C2(O)CCCCC2)CC1` (stereo not shown) [Example 180, 1-[1-(4′-fluoro-1,1′-biphenyl-4-yl)-2-(4-methylpiperazin-1-yl)ethyl]cyclohexanol dihydrochloride], the inhibition at 1 µM amounted to 47%.
Take `Cc1ccc(-c2ccc(C(CN3CCN(C)CC3)C3(O)CCCCC3)cc2)cc1` (stereo not shown) [Example 181, 1-[1-(4′-methyl-1,1′-biphenyl-4-yl)-2-(4-methylpiperazin-1-yl)ethyl]cyclohexanol dihydrochloride]: the inhibition at 1 µM was 31%.
Consider `OC1(C(CN2CCNCC2)c2ccc(-c3cccc(Cl)c3)cc2)CCC1` (stereo not shown) [Example 182, 1-[1-(3′-chloro-1,1′-biphenyl-4-yl)-2-piperazin-1-ylethyl]cyclobutanol dihydrochloride], for which the inhibition at 1 µM turned out to be 43%.
In the case of `OC1(C(CN2CCNCC2)c2ccc(-c3cccc(OC(F)(F)F)c3)cc2)CCC1` (stereo not shown) [Example 183, 1-{2-piperazin-1-yl-1-[3′-(trifluoromethoxy)-1,1′-biphenyl-4-yl]ethyl}cyclobutanol dihydrochloride], the inhibition at 1 µM was 16%.
With `OC1(C(CN2CCNCC2)c2ccc(-c3ccc(Cl)c(Cl)c3)cc2)CCC1` (stereo not shown) [Example 184, 1-[1-(3′,4′-dichloro-1,1′-biphenyl-4-yl)-2-piperazin-1-ylethyl]cyclobutanol dihydrochloride], the inhibition at 1 µM was determined as 40%.
Same read-out and setting: under `OC1(C(CN2CCNCC2)c2ccc(-c3cc(Cl)cc(Cl)c3)cc2)CCC1` (stereo not shown) [Example 185, 1-[1-(3′,5′-dichloro-1,1′-biphenyl-4-yl)-2-piperazin-1-ylethyl]cyclobutanol dihydrochloride] stands 27%.

Staying with this assay, now noted: MDCK-Net6, read-out: % Inhibition @ 1 μM (hNET), 1 μM test compound, [3H]NE uptake.
As to `CN1CCN(C[C@H](c2cccc(OC(F)(F)F)c2)C2(O)CCCCC2)CC1` [Example 245, 1-{(1S)-2-(4-methylpiperazin-1-yl)-1-[3-(trifluoromethoxy)phenyl]ethyl}cyclohexanol dihydrochloride], the inhibition at 1 µM was found to be 88%.
Take `CN1CCN(C[C@@H](c2cccc(OC(F)(F)F)c2)C2(O)CCCCC2)CC1` [Example 246, 1-{(1R)-2-(4-methylpiperazin-1-yl)-1-[3-(trifluoromethoxy)phenyl]ethyl}cyclohexanol dihydrochloride]: the inhibition at 1 µM was found to be 7.4%.

The same assay, now with this note: [3H]NE uptake, test range 1 to 10,000 nM.
`CN1CCN(CC(c2cccc(C#N)c2)C2(O)CCCCC2)CC1` (stereo not shown) [Example 161, 1-[1-(3-cyanophenyl)-2-(4-methylpiperazin-1-yl)ethyl]cyclohexanol dihydrochloride] gave a pEC50 of 6.66.
`C=Cc1cccc(C(CN2CCNCC2)C2(O)CCCCC2)c1` (stereo not shown) [Example 162, 1-[2-piperazin-1-yl-1-(3-vinylphenyl)ethyl]cyclohexanol dihydrochloride] showed a pEC50 of 6.39.
`N#Cc1cccc(-c2ccc(C(CN3CCNCC3)C3(O)CCCCC3)cc2)c1` (stereo not shown) [Example 168, 1-[1-(3′-cyano-1,1′-biphenyl-4-yl)-2-piperazin-1-ylethyl]cyclohexanol dihydrochloride] had a pEC50 of 6.74.
`O=[N+]([O-])c1cccc(-c2ccc(C(CN3CCNCC3)C3(O)CCCCC3)cc2)c1` (stereo not shown) [Example 169, 1-[1-(3′-nitro-1,1′-biphenyl-4-yl)-2-piperazin-1-ylethyl]cyclohexanol dihydrochloride] showed a pEC50 of 6.07.
